Measurements taken from patent publication US20210078988A1, “MODULATORS OF INDOLEAMINE 2,3-DIOXYGENASE” (GLAXOSMITHKLINE INTELLECTUAL PROPERTY DEVELOPMENT LIMITED, priority 2017, published 2021).

Biological target: T1, indoleamine 2, 3-dioxygenase (IDO1) (Homo sapiens, UniProt P14902)
T1 construct: human peripheral blood mononuclear cells (PBMC) (PB003F; host or cells: human PBMC stimulated with IFN-gamma and LPS
Test: PBMC IDO1 assay (kynurenine detection via mass spectrometry)
Assay type: cell-based
Settings: human PBMC stimulated with IFN-γ and LPS, 2 days, kynurenine by mass spectrometry; read-out: IDO1 PBMC pIC50 (converted)
How it was run: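 Kynurenine output, read by RapidFire mass spectrometry as a ratio to internal standard, reflected IDO1 activity in human PBMCs induced with 100 ng/ml IFN-γ plus 50 ng/ml LPS and dosed with compound (11 points, 3-fold) over 2 days. Cytotoxicity was tracked by CellTiter-Glo; XC50 values came from Hill-slope fits.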

T1 sequence (P14902 whole entry): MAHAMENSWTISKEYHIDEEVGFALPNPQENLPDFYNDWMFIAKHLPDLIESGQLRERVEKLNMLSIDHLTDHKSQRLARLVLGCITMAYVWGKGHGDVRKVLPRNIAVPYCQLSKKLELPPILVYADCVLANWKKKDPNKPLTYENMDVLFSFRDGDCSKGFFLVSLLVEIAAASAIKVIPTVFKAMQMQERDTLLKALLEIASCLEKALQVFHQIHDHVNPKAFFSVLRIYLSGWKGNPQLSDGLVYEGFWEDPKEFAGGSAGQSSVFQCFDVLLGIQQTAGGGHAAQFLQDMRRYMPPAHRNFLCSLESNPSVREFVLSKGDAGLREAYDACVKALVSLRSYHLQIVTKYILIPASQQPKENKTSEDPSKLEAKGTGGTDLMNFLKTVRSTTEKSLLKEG

| IC50 [nM] | Structure (SMILES) |
| --- | --- |
| 100 | CC(C)(C)OC(=O)N1CCC(CC(NC(=O)c2ccc(F)cc2)c2ccc(OCc3ccccc3)nc2)CC1 (stereo not shown) [Example 160, tert-butyl 4-(2-(6-(benzyloxy)pyridin-3-yl)-2-(4-fluorobenzamido)ethyl)piperidine-1-carboxylate] |
| 100 | COc1cc(C(=O)NC(CC2CCN(C(=O)OC(C)(C)C)CC2)c2ccccc2)ccc1Cl (stereo not shown) [Example 161, tert-butyl 4-(2-(4-chloro-3-methoxybenzamido)-2-phenylethyl)piperidine-1-carboxylate] |
| 100 | CC(C)(C)OC(=O)N1CCC(CC(NC(=O)c2ccc(C#N)c(F)c2)c2ccccc2)CC1 (stereo not shown) [Example 162, tert-butyl 4-(2-(4-cyano-3-fluorobenzamido)-2-phenylethyl)piperidine-1-carboxylate] |
| 100 | CC(C)CC(=O)N1CCC(CC(NC(=O)c2ccc(Cl)cc2)c2ccccc2)CC1 (stereo not shown) [Example 163, 4-chloro-N-(2-(1-(3-methylbutanoyl)piperidin-4-yl)-1-phenylethyl)benzamide] |
| 100 | CC(C)(C)CC(=O)N1CCC(CC(NC(=O)c2ccc(Cl)cc2)c2ccccc2)CC1 (stereo not shown) [Example 164, 4-chloro-N-(2-(1-(3,3-dimethylbutanoyl)piperidin-4-yl)-1-phenylethyl)benzamide] |
| 100 | CC(C)(C)NC(=O)N1CCC(CC(NC(=O)c2ccc(Cl)cc2)c2ccccc2)CC1 (stereo not shown) [Example 165, N-(tert-butyl)-4-(2-(4-chlorobenzamido)-2-phenylethyl)piperidine-1-carboxamide] |
| 100 | CC(C)CS(=O)(=O)N1CCC(CC(NC(=O)c2ccc(Cl)cc2)c2ccccc2)CC1 (stereo not shown) [Example 166, 4-chloro-N-(2-(1-(isobutylsulfonyl)piperidin-4-yl)-1-phenylethyl)benzamide] |
| 100 | CC#CCOc1ccc(C(=O)NC(CC2CCN(C(=O)OC(C)(C)C)CC2)c2ccccc2)cc1F (stereo not shown) [Example 167, tert-butyl 4-(2-(4-(but-2-yn-1-yloxy)-3-fluorobenzamido)-2-phenylethyl)piperidine-1-carboxylate] |
| 100 | CC(C)(C)OC(=O)N1CCC(CC(NC(=O)c2cc(Cl)cs2)c2ccccc2)CC1 (stereo not shown) [Example 168, tert-butyl 4-(2-(4-chlorothiophene-2-carboxamido)-2-phenylethyl)piperidine-1-carboxylate] |
| 100 | CCC(CC)c1nc(C(CC2CCN(C(=O)OC(C)(C)C)CC2)NC(=O)c2ccc(F)cc2)no1 (stereo not shown) [Example 169, tert-butyl 4-(2-(4-fluorobenzamido)-2-(5-(pentan-3-yl)-1,2,4-oxadiazol-3-yl)ethyl)piperidine-1-carboxylate] |
| 100 | CC(C)(C)OC(=O)N1CCC(C[C@H](Nc2ncc(-c3ccccc3)o2)C2CC2)CC1 [Example 170, (S)-tert-butyl 4-(2-cyclopropyl-2-((5-phenyloxazol-2-yl)amino)ethyl)piperidine-1-carboxylate] |
| 100 | CCCNc1nnc(C(CC2CCN(C(=O)OC(C)(C)C)CC2)NC(=O)c2ccc(Cl)s2)o1 (stereo not shown) [Example 171, tert-butyl 4-(2-(5-chlorothiophene-2-carboxamido)-2-(5-(propylamino)-1,3,4-oxadiazol-2-yl)ethyl)piperidine-1-carboxylate] |
| 126 | COC(=O)N1CCC(CC(NC(=O)c2ccc(F)cc2)c2ccccc2)CC1 (stereo not shown) [Example 173, methyl 4-(2-(4-fluorobenzamido)-2-phenylethyl)piperidine-1-carboxylate] |
| 126 | Cc1ccc(C(CC2CCN(C(=O)OC(C)(C)C)CC2)NC(=O)c2ccc(F)cc2)cn1 (stereo not shown) [Example 174, tert-butyl 4-(2-(4-fluorobenzamido)-2-(6-methylpyridin-3-yl)ethyl)piperidine-1-carboxylate] |
| 126 | CC(C)(C)OC(=O)N1CCC(CC(NC(=O)c2ccc3c(c2)OCO3)c2ccccc2)CC1 (stereo not shown) [Example 175, tert-butyl 4-(2-(benzo[d][1,3]dioxole-5-carboxamido)-2-phenylethyl)piperidine-1-carboxylate] |
| 126 | CC(C)(C)OC(=O)N1CCC(CC(NC(=O)c2ccc(F)cc2)c2ccc(=O)n(Cc3ccccc3)c2)CC1 (stereo not shown) [Example 176, tert-butyl 4-(2-(1-benzyl-6-oxo-1,6-dihydropyridin-3-yl)-2-(4-fluorobenzamido)ethyl)piperidine-1-carboxylate] |
| 126 | CCOC(=O)N1CCC(C[C@@H](NC(=O)c2ccc(Cl)s2)C2CC2)CC1 [Example 177, (R)-ethyl 4-(2-(5-chlorothiophene-2-carboxamido)-2-cyclopropylethyl)piperdine-1-carboxylate] |
| 126 | CSc1ccc(C(=O)NC(CC2CCN(C(=O)OC(C)(C)C)CC2)c2ccccc2)cc1 (stereo not shown) [Example 178, tert-butyl 4-(2-(4-(methylthio)benzamido)-2-phenylethyl)piperidine-1-carboxylate] |
| 126 | Cc1csc(C(=O)NC(CC2CCN(C(=O)OC(C)(C)C)CC2)c2ccccc2)c1 (stereo not shown) [Example 179, tert-butyl 4-(2-(4-methylthiophene-2-carboxamido)-2-phenylethyl)piperidine-1-carboxylate] |

| IC50 [nM] | Structure (SMILES) |
| --- | --- |
| 126 | C=Cc1ccc(C(=O)NC(CC2CCN(C(=O)OC(C)(C)C)CC2)c2ccccc2)s1 (stereo not shown) [Example 180, tert-butyl 4-(2-phenyl-2-(5-vinylthiophene-2-carboxamido)ethyl)piperidine-1-carboxylate] |
| 158 | CC(C)(C)OC(=O)N1CCC(CC(NC(=O)c2cccc3cc[nH]c23)c2ccccc2)CC1 (stereo not shown) [Example 181, tert-butyl 4-(2-(1H-indole-7-carboxamido)-2-phenylethyl)piperidine-1-carboxylate] |
| 158 | CC(C)(C)OC(=O)N1CCC(CC(NC(=O)c2cc3ccccc3s2)c2ccccc2)CC1 (stereo not shown) [Example 182, tert-butyl 4-(2-(benzo[b]thiophene-2-carboxamido)-2-phenylethyl)piperidine-1-carboxylate] |
| 158 | COc1ccc([C@@H](CC2CCN(C(=O)OC(C)(C)C)CC2)NC(=O)c2ccc(F)cc2)cn1 [Example 183, (R)-tert-butyl 4-(2-(4-fluorobenzamido)-2-(6-methoxypyridin-3-yl)ethyl)piperidine-1-carboxylate] |
| 158 | CC(C)NC(=O)N1CCC(CC(NC(=O)c2ccc(Cl)cc2)c2ccccc2)CC1 (stereo not shown) [Example 184, 4-(2-(4-chlorobenzamido)-2-phenylethyl)-N-isopropylpiperidine-1-carboxamide] |
| 158 | O=C(NC(CC1CCN(C(=O)OC2COC2)CC1)c1ccccc1)c1ccc(Cl)cc1 (stereo not shown) [Example 185, oxetan-3-yl 4-(2-(4-chlorobenzamido)-2-phenylethyl)piperidine-1-carboxylate] |
| 158 | O=C(NC(CC1CCN(C(=O)OC2CCOCC2)CC1)c1ccccc1)c1ccc(Cl)cc1 (stereo not shown) [Example 186, tetrahydro-2H-pyran-4-yl 4-(2-(4-chlorobenzamido)-2-phenylethyl)piperidine-1-carboxylate] |
| 158 | CC(C)(C)COC(=O)N1CCC(CC(NC(=O)c2ccc(Cl)cc2)c2ccccc2)CC1 (stereo not shown) [Example 187, neopentyl 4-(2-(4-chlorobenzamido)-2-phenylethyl)piperidine-1-carboxylate] |
| 158 | CC(C)OC(=O)N1CCC(C[C@@H](NC(=O)c2ccc(Cl)s2)C2CC2)CC1 [Example 188, (R)-isopropyl 4-(2-(5-chlorothiophene-2-carboxamido)-2-cyclopropylethyl)piperidine-1-carboxylate] |
| 200 | CC(C)(C)OC(=O)N1CCC(CC(NC(=O)c2ccc(C#N)nc2)c2ccccc2)CC1 (stereo not shown) [Example 189, tert-butyl 4-(2-(6-cyanonicotinamido)-2-phenylethyl)piperidine-1-carboxylate] |
| 200 | CC(C)(C)OC(=O)N1CCC(CC(NC(=O)C2CCCCC2)c2ccccc2)CC1 (stereo not shown) [Example 190, tert-butyl 4-(2-(cyclohexanecarboxamido)-2-phenylethyl)piperidine-1-carboxylate] |
| 200 | Cc1ncc(C(=O)NC(CC2CCN(C(=O)OC(C)(C)C)CC2)c2ccccc2)s1 (stereo not shown) [Example 191, tert-butyl 4-(2-(2-methylthiazole-5-carboxamido)-2-phenylethyl)piperidine-1-carboxylate] |
| 200 | CCCOc1ccc(C(=O)NC(CC2CCN(C(=O)OC(C)(C)C)CC2)c2ccccc2)cc1 (stereo not shown) [Example 192, tert-butyl 4-(2-phenyl-2-(4-propoxybenzamido)ethyl)piperidine-1-carboxylate] |
| 200 | O=C(NC(CC1CCN(S(=O)(=O)C2CCCC2)CC1)c1ccccc1)c1ccc(Cl)cc1 (stereo not shown) [Example 193, 4-chloro-N-(2-(1-(cyclopentylsulfonyl)piperidin-4-yl)-1-phenylethyl)benzamide] |
| 251 | CC(C)(C)OC(=O)N1CCC(CC(NC(=O)c2ccccc2O)c2ccccc2)CC1 (stereo not shown) [Example 194, tert-butyl 4-(2-(2-hydroxybenzamido)-2-phenylethyl)piperidine-1-carboxylate] |
| 251 | CC(C)(C)OC(=O)N1CCC(CC(NC(=O)c2ccc(O)cc2)c2ccccc2)CC1 (stereo not shown) [Example 195, tert-butyl 4-(2-(4-hydroxybenzamido)-2-phenylethyl)piperidine-1-carboxylate] |
| 251 | CC(C)(C)OC(=O)N1CCC(CC(NC(=O)c2ccc(O)c(F)c2)c2ccccc2)CC1 (stereo not shown) [Example 196, tert-butyl 4-(2-(3-fluoro-4-hydroxybenzamido)-2-phenylethyl)piperidine-1-carboxylate] |
| 251 | O=C(NC(CC1CCN(S(=O)(=O)N2CCCCC2)CC1)c1ccccc1)c1ccc(Cl)cc1 (stereo not shown) [Example 197, 4-chloro-N-(1-phenyl-2-(1-(piperidin-1-ylsulfonyl)piperidin-4-yl)ethyl)benzamide] |
